# ChEMBL document CHEMBL3593198 (Bioorg Med Chem, 2015)
# pIC50: −log10 of the molar value. Calls of active or inactive are those of the source. No cut-off for these calls is given here.
# Legend:
# [1] = Cytotoxicity against human RKO-AS45-1 cells after 48 hrs by MTT assay; assay type: functional, cell-based; conditions: RKOAS451, 48 h
# [2] = system: HeLa; assay: Inhibition of Na(+)/K(+) ATPase alpha-1 expression in human HeLa cells at 150 nM after 24 hrs by immunoblotting; assay type: functional, cell-based
# [3] = molecular target: T1, Sodium/potassium-transporting ATPase (Homo sapiens) (UniProt P05023+P14415+P05026+P50993+P54709+P13637+Q13733+P54710); conditions: HeLa, 150 nM
# Description: Inhibition of Na(+)/K(+) ATPase in human HeLa cells at 150 nM after 24 hrs by immunoblotting
# [4] = system: HeLa; assay: Cytotoxicity against human HeLa cells after 48 hrs by MTT assay; assay type: functional, cell-based
# [5] = Cytotoxicity against human WI-26 VA4 cells after 48 hrs by MTT assay; assay type: cell-based; conditions: WI26VA4, 48 h
# [6] = system: HeLa; assay: Selectivity index, ratio of IC50 for human WI-26 VA4 cells to IC50 for human HeLa cells; assay type: functional
# [7] = Selectivity index, ratio of IC50 for human WI-26 VA4 cells to IC50 for human RKO-AS45-1 cells; assay type: functional
# [8] = molecular target: Sodium/potassium-transporting ATPase subunit alpha-2/alpha-3 (Rattus norvegicus, UniProt P06686+P06687); assay: Inhibition of Wistar rat brain Na(+)/K(+) ATPase alpha-2/3 assessed as amount of Pi release after 1 hr by colorimetric method
# [9] = molecular target: T1, Sodium/potassium-transporting ATPase (Homo sapiens); assay: Inhibition of Na(+)/K(+) ATPase in human HeLa cells at 10 uM after 24 hrs by immunoblotting; assay type: cell-based
# [10] = molecular target: T2, Sodium/potassium-transporting ATPase subunit alpha-1 (Homo sapiens, UniProt P05023); assay: Inhibition of human kidney Na(+)/K(+) ATPase alpha-1 assessed as amount of Pi release after 1 hr by colorimetric method
# [11] = system: HeLa; assay: Inhibition of Na(+)/K(+) ATPase alpha-1 expression in human HeLa cells at 10 uM after 24 hrs by immunoblotting; assay type: functional, cell-based
# [12] = molecular target: T2, Sodium/potassium-transporting ATPase subunit alpha-1; assay: Inhibition of human kidney Na(+)/K(+) ATPase alpha-1 assessed as amount of Pi release at 10 uM after 1 hr by colorimetric method
# [13] = molecular target: Sodium/potassium-transporting ATPase subunit alpha-2/alpha-3 (Rattus norvegicus) (UniProt P06686+P06687); assay: Inhibition of Wistar rat brain Na(+)/K(+) ATPase alpha-2/3 assessed as amount of Pi release at 10 uM after 1 hr by colorimetric method
compound,measurement,setting,value
C[C@H]1O[C@@H](O[C@H]2[C@@H](O)C[C@H](O[C@H]3[C@@H](O)C[C@H](O[C@H]4CC[C@@]5(C)[C@H](CC[C@@H]6[C@@H]5C[C@@H](O)[C@]5(C)[C@@H](C7=CC(=O)OC7)CC[C@]65O)C4)O[C@@H]3C)O[C@@H]2C)C[C@H](O)[C@@H]1O [DIGOXIN],pIC50,[1],6.38
same,inhibition,[2],inactive
same,inhibition,[3],Active
C[C@H]1O[C@@H](O[C@H]2[C@@H](O)C[C@H](O[C@H]3[C@@H](O)C[C@H](O[C@H]4CC[C@@]5(C)[C@H](CC[C@@H]6[C@@H]5C[C@@H](O)[C@]5(C)[C@@H](C7=CC(=O)O/C7=C\c7cccc(Cl)c7Cl)CC[C@]65O)C4)O[C@@H]3C)O[C@@H]2C)C[C@H](O)[C@@H]1O,pIC50,[4],4.37
same,pIC50,[1],4.72
same,pIC50,[5],4.81
same,Ratio IC50,[6],0.36
same,Ratio IC50,[7],0.81
same,pIC50,[8],4.74
same,inhibition,[9],inactive
C[C@H]1O[C@@H](O[C@H]2[C@@H](O)C[C@H](O[C@H]3[C@@H](O)C[C@H](O[C@H]4CC[C@@]5(C)[C@H](CC[C@@H]6[C@@H]5C[C@@H](O)[C@]5(C)[C@@H](C7=CC(=O)O/C7=C\c7ccc(N(C)C)cc7)CC[C@]65O)C4)O[C@@H]3C)O[C@@H]2C)C[C@H](O)[C@@H]1O,pIC50,[4],6.59
same,pIC50,[1],6.32
same,pIC50,[5],6.19
same,Ratio IC50,[6],2.5
same,Ratio IC50,[7],1.35
same,pIC50,[10],5.01
same,pIC50,[8],4.70
same,inhibition,[9],Active
same,inhibition,[2],inactive
same,inhibition,[11],inactive
same,inhibition,[3],Active
C[C@H]1O[C@@H](O[C@H]2[C@@H](O)C[C@H](O[C@H]3[C@@H](O)C[C@H](O[C@H]4CC[C@@]5(C)[C@H](CC[C@@H]6[C@@H]5C[C@@H](O)[C@]5(C)[C@@H](C7=CC(=O)O/C7=C\c7ccc(Cl)cc7)CC[C@]65O)C4)O[C@@H]3C)O[C@@H]2C)C[C@H](O)[C@@H]1O,pIC50,[4],4.40
same,pIC50,[1],4.62
same,pIC50,[5],4.54
same,Ratio IC50,[6],0.72
same,Ratio IC50,[7],1.21
same,inhibition,[12],inactive
same,inhibition,[13],inactive
same,inhibition,[9],inactive
C[C@H]1O[C@@H](O[C@H]2[C@@H](O)C[C@H](O[C@H]3[C@@H](O)C[C@H](O[C@H]4CC[C@@]5(C)[C@H](CC[C@@H]6[C@@H]5C[C@@H](O)[C@]5(C)[C@@H](C7=CC(=O)O/C7=C\c7cccc([N+](=O)[O-])c7)CC[C@]65O)C4)O[C@@H]3C)O[C@@H]2C)C[C@H](O)[C@@H]1O,pIC50,[4],4.19
same,pIC50,[1],4.38
same,pIC50,[5],4.36
same,Ratio IC50,[6],0.68
same,Ratio IC50,[7],1.07
same,pIC50,[10],4.96
same,pIC50,[8],5.40
same,inhibition,[9],inactive
C[C@H]1O[C@@H](O[C@H]2[C@@H](O)C[C@H](O[C@H]3[C@@H](O)C[C@H](O[C@H]4CC[C@@]5(C)[C@H](CC[C@@H]6[C@@H]5C[C@@H](O)[C@]5(C)[C@@H](C7=CC(=O)O/C7=C\c7ccc(F)cc7)CC[C@]65O)C4)O[C@@H]3C)O[C@@H]2C)C[C@H](O)[C@@H]1O,pIC50,[4],4.22
same,pIC50,[1],4.38
same,pIC50,[5],4.27
same,Ratio IC50,[6],0.89
same,Ratio IC50,[7],1.31
same,pIC50,[10],6.47
same,pIC50,[8],6.18
same,inhibition,[9],inactive
COc1ccc(/C=C2\OC(=O)C=C2[C@H]2CC[C@]3(O)[C@@H]4CC[C@@H]5C[C@@H](O[C@H]6C[C@H](O)[C@H](O[C@H]7C[C@H](O)[C@H](O[C@H]8C[C@H](O)[C@H](O)[C@@H](C)O8)[C@@H](C)O7)[C@@H](C)O6)CC[C@]5(C)[C@H]4C[C@@H](O)[C@]23C)cc1,pIC50,[4],4.21
same,pIC50,[1],4.10
same,pIC50,[5],4.11
same,Ratio IC50,[6],1.27
same,Ratio IC50,[7],0.99
same,pIC50,[10],6.24
same,pIC50,[8],6.34
same,inhibition,[9],inactive
